# Data taken from ChEMBL document CHEMBL5236595, “JDQ443, a Structurally Novel, Pyrazole-Based, Covalent Inhibitor of KRASG12C for the Treatment of Solid Tumors” (J Med Chem, 2022).
# pIC50: −log10 of the molar value.
# How the values were obtained:
# [1] = system: GTPase KRas (Homo sapiens), P01116 [G12C]; test: In vivo target occupancy at KRAS G12C mutant in human MIA PaCa-2 cells xenografted mouse assessed as decrease in […] expression at 30 mg/kg, po after 3 hrs; format: functional, organism-based
# [2] = Aqueous solubility of compound in pH 6.8; format: physicochemical; conditions: aqueous medium
# [3] = AUCinfinity in Beagle dog at 15 mg/kg, po measured upto 24 hrs by LC-MS/MS method; format: ADME, organism-based, Canis lupus familiaris; set-up: dose 15 mg/kg, time < 24 hrs, route po; conditions: in vivo
# [4] = Tmax in mouse xenografted with human MIA PaCa-2 cells at 3 to 30 mg/kg, po; format: ADME, organism-based; conditions: in vivo, dose 3-30 mg/kg
# Nav1.5 = Nav1.5 (Homo sapiens, UniProt Q14524); test: Inhibition of Nav1.5 (unknown origin) at 50 uM relative to control
# [5] = Volume of distribution at steady state in mouse at 1 mg/kg, iv measured upto 24 hrs by LC-MS/MS method; format: ADME, organism-based; conditions: in vivo, read-out: Vdss
# [6] = Lipophilicity, logD of compound at pH 7.4; format: physicochemical; conditions: buffer
# [7] = Plasma protein binding in human incubated for 6 hrs by LC-MS/MS based rapid equlibrium dialysis method; format: ADME, cell-free; conditions: read-out: PPB (converted)
# [8] = system: GTPase KRas (Homo sapiens), P01116 [G12C]; test: In vivo target occupancy at KRAS G12C mutant in human MIA PaCa-2 cells xenografted mouse assessed as decrease in […] expression at 30 mg/kg, po after 24 hrs; format: functional, organism-based
# [9] = Dose normalized AUC in Beagle dog at 15 mg/kg, po measured upto 24 hrs by LC-MS/MS method; format: ADME, organism-based, Canis lupus familiaris; conditions: in vivo
# [10] = Solubility of compound in FaSSIF; format: ADME
# [11] = Apparent permeability across apical to basolateral side in MDCK-MDR1 cells at 10 uM after 2 hrs by LC-MS/MS analysis; format: ADME, cell-based, Canis lupus familiaris; conditions: dog
# MIA PaCa-2 [12] = test: Antitumor activity against human MIA PaCa-2 cells xenografted in mouse assessed as tumor regression at 30 mg/kg, po; format: functional
# [13] = Plasma protein binding in dog incubated for 6 hrs by LC-MS/MS based rapid equlibrium dialysis method; format: ADME, cell-free, Canis lupus familiaris; conditions: read-out: PPB (converted)
# [14] = molecular target: Sodium channel protein type 5 subunit alpha (Homo sapiens, UniProt Q14524); test: Inhibition of Nav1.5 (unknown origin)
# NCI-H1437 = test: Antiproliferative activity against human NCI-H1437 cells by resazurin assay; format: functional
# [15] = AUC in human MIA PaCa-2 cells xenografted mouse at 30 mg/kg, po; format: ADME, organism-based; set-up: dose 30 mg/kg, route po; conditions: in vivo
# Cav1.2 = Cav1.2 (Homo sapiens, UniProt Q13936); test: Inhibition of Cav1.2 (unknown origin) at 50 uM relative to control
# Cytochrome P450 3A4 [16] = molecular target: T1, Cytochrome P450 3A4 (Homo sapiens, UniProt P08684); test: Inhibition of CYP3A4 in human liver microsomes using testosterone as substrate incubated for 10 to 30 mins in presence of NADPH by LC-MS/MS method; format: ADME, Microsome
# GTPase KRas = GTPase KRas (Homo sapiens, UniProt P01116, G12C); test: Inhibition of KRAS G12C mutant in human NCI-H358 cells assessed as reduction in ERK phosphorylation incubated for 6 hrs by MSD assay; format: cell-based
# [17] = molecular target: Voltage-dependent L-type calcium channel subunit alpha-1C (Homo sapiens, UniProt Q13936); test: Inhibition of Cav1.2 (unknown origin)
# [18] = Plasma protein binding in rat incubated for 6 hrs by LC-MS/MS based rapid equlibrium dialysis method; format: ADME, cell-free; conditions: read-out: PPB (converted)
# [19] = system: GTPase KRas (Homo sapiens), P01116 [G12C]; test: In vivo target occupancy at KRAS G12C mutant in human MIA PaCa-2 cells xenografted mouse assessed as decrease in free KRAS G12C level at 30 mg/kg, po after 6 hrs; format: functional, organism-based
# [20] = Plasma protein binding in mouse incubated for 6 hrs by LC-MS/MS based rapid equlibrium dialysis method; format: ADME, cell-free; conditions: read-out: PPB (converted)
# MIA PaCa-2 [21] = test: Antitumor activity against human MIA PaCa-2 cells xenografted in mouse assessed as tumor regression at 10 mg/kg, po; format: functional
# Cytochrome P450 2C9 [22] = molecular target: T2, Cytochrome P450 2C9 (Homo sapiens, UniProt P11712); test: Inhibition of CYP2C9 in human liver microsomes using diclofenac as substrate incubated for 10 to 30 mins in presence of NADPH by LC-MS/MS method; format: ADME, Microsome
# [23] = Dose normalized AUC in mouse at 30 mg/kg, po measured upto 24 hrs by LC-MS/MS method; format: ADME, organism-based; conditions: in vivo
# [24] = system: GTPase KRas (Homo sapiens), P01116 [G12C]; test: In vivo target occupancy at KRAS G12C mutant in human MIA PaCa-2 cells xenografted mouse assessed as decrease in free KRAS G12C level at 30 mg/kg, po after 24 hrs; format: functional, organism-based
# [25] = Tmax in mouse at 30 mg/kg, po measured upto 24 hrs by LC-MS/MS method; format: ADME, organism-based; conditions: in vivo
# NCI-H358 = test: Antiproliferative activity against human NCI-H358 cells by resazurin assay; format: functional
# [26] = system: GTPase KRas (Homo sapiens), P01116 [G12C]; test: In vivo target occupancy at KRAS G12C mutant in human MIA PaCa-2 cells xenografted mouse assessed as decrease in free KRAS G12C level at 30 mg/kg, po after 3 hrs; format: functional, organism-based
# Cytochrome P450 2D6 = Cytochrome P450 2D6 (Homo sapiens, UniProt P10635); test: Inhibition of CYP2D6 in human liver microsomes using bufuralol as substrate incubated for 10 to 30 mins in presence of NADPH by LC-MS/MS method; format: ADME, Microsome
# [27] = Apparent permeability in human Caco-2 cells; format: ADME, cell-based
# Cytochrome P450 3A4 [28] = molecular target: T1, Cytochrome P450 3A4; test: Time dependent inhibition of CYP3A4 in pooled human liver microsomes measured upto 30 mins by LC-MS/MS method; format: ADME, Microsome; conditions: 0.5 h
# [29] = Cmax in Beagle dog at 15 mg/kg, po measured upto 24 hrs by LC-MS/MS method; format: ADME, organism-based, Canis lupus familiaris; set-up: time < 24 hrs, dose 15 mg/kg, route po; conditions: in vivo
# [30] = Volume of distribution at steady state in Beagle dog at 0.1 mg/kg, iv measured upto 24 hrs by LC-MS/MS method; format: ADME, organism-based, Canis lupus familiaris; conditions: in vivo, read-out: Vdss
# [31] = system: GTPase KRas (Homo sapiens), P01116 [G12C]; test: In vivo target occupancy at KRAS G12C mutant in human MIA PaCa-2 cells xenografted mouse assessed as decrease in […] expression at 30 mg/kg, po after 6 hrs; format: functional, organism-based
# [32] = molecular target: Voltage-gated inwardly rectifying potassium channel KCNH2 (Homo sapiens, UniProt Q12809); test: Inhibition of human ERG by manual patch clamp method; format: toxicity
# [33] = Toxicity in mouse xenografted with human MIA PaCa-2 cells assessed as tolerability at 3 to 30 mg/kg, po; format: organism-based; conditions: in vivo, dose 3-30 mg/kg
# [34] = Aqueous solubility of compound in pH 4; format: physicochemical; conditions: aqueous medium
# [35] = Tmax in Beagle dog at 15 mg/kg, po measured upto 24 hrs by LC-MS/MS method; format: ADME, organism-based, Canis lupus familiaris; conditions: in vivo
# [36] = Solubility of compound in FeSSIF; format: ADME
# [37] = Cmax in human MIA PaCa-2 cells xenografted mouse at 30 mg/kg, po; format: ADME, organism-based; set-up: dose 30 mg/kg, route po; conditions: in vivo
# Cytochrome P450 2C9 [38] = molecular target: T2, Cytochrome P450 2C9; test: Time dependent inhibition of CYP2C9 in pooled human liver microsomes measured upto 30 mins by LC-MS/MS method; format: ADME, Microsome; conditions: 0.5 h
# [39] = AUCinfinity in mouse at 30 mg/kg, po measured upto 24 hrs by LC-MS/MS method; format: ADME, organism-based; set-up: dose 30 mg/kg, time < 24 hrs, route po; conditions: in vivo
# [40] = Cmax in mouse at 30 mg/kg, po measured upto 24 hrs by LC-MS/MS method; format: ADME, organism-based; set-up: dose 30 mg/kg, time < 24 hrs, route po; conditions: in vivo
# [41] = system: GTPase KRas (Homo sapiens), P01116 [G12C]; test: Displacement of [acrylamide-2,3-3H2]-N-(3-fluoro-4-(2-methyl-3-(5-methyl-1H- indazole-4-yl)-1H-pyrrolo[ 2,3-b]pyridin-1-yl)-phenyl from KRAS G12C mutant (unknown origin) assessed as ratio of Kinact/Ki by competitive scintillation proximity assay
# [42] = Cysteine reactivity in pH 7.4 phosphate buffer assessed as compound half life at 2 uM in presence of GSH
compound,measurement,setting,value
C=CC(=O)N1CC2(CC(n3nc(-c4ccc5c(cnn5C)c4)c(-c4c(Cl)c(C)cc5[nH]ncc45)c3C)C2)C1 [OPNURASIB],Occ,[1],27%
same,solubility,[2],10 µM
same,AUC(0-inf),[3],10 µM·h
same,Tmax,[4],60 min
same,inhibition at 50 µM,Nav1.5,12%
same,Vd,[5],5.9 L/kg
same,logD,[6],4.6
same,fraction unbound at 6 h,[7],0.007
same,Occ,[8],100%
same,AUC/dose,[9],0.65 µM·h
same,solubility,[10],6 µg/mL
same,"Papp A→B at 2 h, 10 µM",[11],5 ×10⁻⁶ cm/s
same,Activity,MIA PaCa-2 [12],-87%
same,fraction unbound at 6 h,[13],0.031
same,pIC50,[14],< 5.00
same,GI50,NCI-H1437,4.4 µM
same,AUC,[15],8.9 µM·h
same,inhibition at 50 µM,Cav1.2,8%
same,pIC50,Cytochrome P450 3A4 [16],5.21
same,pIC50,GTPase KRas,7.70
same,pIC50,[17],< 5.00
same,fraction unbound at 6 h,[18],0.024
same,Occ,[19],2%
same,fraction unbound at 6 h,[20],0.016
same,Activity,MIA PaCa-2 [21],-34%
same,pIC50,Cytochrome P450 2C9 [22],5.43
same,AUC/dose,[23],0.2 µM·h
same,Occ,[24],23%
same,Tmax,[25],30 min
same,GI50,NCI-H358,0.018 µM
same,Occ,[26],3%
same,pIC50,Cytochrome P450 2D6,< 4.70
same,Papp,[27],6.78 ×10⁻⁶ cm/s
same,TDI,Cytochrome P450 3A4 [28],Not Active
same,Cmax,[29],1100 nM
same,Vd,[30],4.2 L/kg
same,Occ,[31],37%
same,pIC50,[32],< 5.33
same,Activity,[33],Non-Toxic
same,solubility,[34],10 µM
same,Tmax,[35],300 min
same,solubility,[36],250 µg/mL
same,Cmax,[37],1700 nM
same,TDI,Cytochrome P450 2C9 [38],Not Active
same,AUC(0-inf),[39],6 µM·h
same,Cmax,[40],2000 nM
C=CC(=O)N1CC2(CC(n3nc(-c4ccc5c(c4)ncn5C)c(-c4c(Cl)c(C)cc5[nH]ncc45)c3C)C2)C1,solubility,[2],40 µM
same,Ratio,[41],24 mM⁻¹ s⁻¹
same,logD,[6],3.9
same,"Papp A→B at 2 h, 10 µM",[11],3.8 ×10⁻⁶ cm/s
same,pIC50,GTPase KRas,6.85
C=CC(=O)Nc1ccc(-n2nc(C)c(-c3c(C)ccc4[nH]ncc34)c2C)c(F)c1,Ratio,[41],0.5 mM⁻¹ s⁻¹
same,T1/2,[42],30 min
C=CC(=O)N1CC2(CC(n3nc(-c4ccc5nnccc5c4)c(-c4c(Cl)c(C)cc5[nH]ncc45)c3C)C2)C1,solubility,[2],10 µM
same,Ratio,[41],25 mM⁻¹ s⁻¹
same,logD,[6],4.1
same,"Papp A→B at 2 h, 10 µM",[11],6.1 ×10⁻⁶ cm/s
C=CC(=O)N1CC2(CC(n3nc(-c4cccnc4)c(-c4c(Cl)c(C)cc5[nH]ncc45)c3C(F)F)C2)C1,Ratio,[41],3 mM⁻¹ s⁻¹
C=CC(=O)N1CC2(CC(n3nc(-c4ccc5[nH]ncc5c4)c(-c4c(Cl)c(C)cc5[nH]ncc45)c3C)C2)C1,solubility,[2],10 µM
same,Ratio,[41],116 mM⁻¹ s⁻¹
same,logD,[6],4.6
same,"Papp A→B at 2 h, 10 µM",[11],0.6 ×10⁻⁶ cm/s
same,pIC50,GTPase KRas,7.70
